The values that follow are results of earlier work, collected in patent publication US20110028397A1, “Use of Urokinase Type Plasminogen Activator Inhibitors for the Treatment of Corneal Disorders” (priority 2007, published 2011).

The conditions of series [1]: eye drop prepared freshly daily, stored in refrigerator between uses.
For a further series, the target named is thrombin (Homo sapiens, UniProt P00734).
For series [2] the following is noted: in vivo, sc.

`N=C(N)NCCC[C@@H](C=O)NC(=O)[C@@H]1CCCN1C(=O)[C@H](N)Cc1ccccc1` [Ald-1, D-Phe-Pro-Arg-aldehyde]: the anticoagulant activity entry (in vitro and in vivo) is given as “significant anticoagulant activity”. Further, the “antithrombotic effect in in vivo studies” value (in vivo) is listed as “effective antithrombotic drug”. The “inhibitory activity on storage” value in series [1] is given as “retains its inhibitory activity”. Moreover, the Ki at thrombin is 75 nM.

Take iBuOCO-D-Ser-Ala-Arg-aldehyde: the biological availability in series [2] is listed as 87%.
